Assay results published in BigSolDB 2.1.

COc1c2occc2c(OC)c2c(=O)cc(C)oc12
solubility (mole fraction)
Conditions	in DMSO	in ethanol	in isopropanol	in methanol	in n-butanol	in water
298.15 K	0.0128	0.00255	0.00195	0.00271	0.00355	1.33e-05
303.15 K	0.0131	0.00282	0.002	0.00272	0.00375	1.23e-05
308.15 K	0.0131	0.00298	0.00209	0.003	0.00372	1.88e-05
313.15 K	0.0132	0.00311	0.00228	0.00314	0.00399	1.88e-05
318.15 K	0.0141	0.00338	0.00233	0.00318	0.00435	3.69e-05
323.15 K	0.0152	0.00338	0.00253	0.00332	0.00529	9.02e-05

Conditions	solubility (mole fraction)
in PEG-200, 298.15 K	0.00171
in PEG-200, 303.15 K	0.00149
in PEG-200, 308.15 K	0.00173
in PEG-200, 313.15 K	0.00199
in PEG-200, 318.15 K	0.00202
in PEG-200, 323.15 K	0.00231
in PEG-400, 298.15 K	0.00438
in PEG-400, 303.15 K	0.00425
in PEG-400, 308.15 K	0.00448
in PEG-400, 313.15 K	0.00453
in PEG-400, 318.15 K	0.00448
in PEG-400, 323.15 K	0.00511
